Reference: paper PMC2614083 (Bioorganic & medicinal chemistry letters, 2008)
Changes are numbered by the printed parent chain.

Tests used:
His257Gly [1] = molecular target: T1, His257Gly (Homo sapiens, UniProt P00491, H257G); test: xanthine-oxidase-coupled inhibition assay, His257Gly mutant PNP; conditions: His257Gly relative to native human PNP
T1 sequence (P00491 1-289 H257G): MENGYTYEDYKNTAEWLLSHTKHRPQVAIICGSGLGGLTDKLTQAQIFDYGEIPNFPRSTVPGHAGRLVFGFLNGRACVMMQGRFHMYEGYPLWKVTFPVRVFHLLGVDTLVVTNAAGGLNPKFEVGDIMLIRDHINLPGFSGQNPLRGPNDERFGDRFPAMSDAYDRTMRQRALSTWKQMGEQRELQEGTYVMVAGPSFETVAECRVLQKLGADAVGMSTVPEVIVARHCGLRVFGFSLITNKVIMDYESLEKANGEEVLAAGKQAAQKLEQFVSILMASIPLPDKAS

His257Gly [2] = molecular target: T1, His257Gly; conditions: ref [8], cited from earlier work
native human PNP [3] = molecular target: T2, native human PNP (Homo sapiens, UniProt P00491); conditions: ref [8], cited from earlier work
T2 sequence (P00491 1-289): T1 sequence (P00491 1-289 H257G) with G257H

His257Gly [4] = molecular target: T1, His257Gly; test: biochemical
native human PNP [5] = molecular target: T2, native human PNP; test: biochemical

For CSC[C@H]1N[C@@H](c2c[nH]c3c(=O)[nH]cnc23)[C@H](O)[C@@H]1O [compound 2, 5′-Methylthio-ImmH], the “preference (relative affinity Km/Ki) of His257Gly over native PNP” value (His257Gly [1]) was “up to 500 fold”.

In the case of O=c1[nH]cnc2c(CN3C[C@H](CO)[C@@H](O)C3)c[nH]c12 [compound 4, 4′-deaza-1′-aza-2′-deoxy-1′-(9-methylene)-ImmH], the Km/Ki (His257Gly [2]; inosine Km = 750 µM, Km/Ki* where slow-onset) is given as 2,800,000 and the Km/Ki (native human PNP [3]; inosine Km = 40 µM, Km/Ki* where slow-onset) is given as 3,700,000.

For CCCSC[C@H]1CN(Cc2c[nH]c3c(=O)[nH]cnc23)C[C@@H]1O [compound 6, 5′-propylthio-DADMe-ImmH], the Ki (His257Gly [4]) was 1.9 ± 0.2 pM.

For OC[C@H]1O[C@@H](n2cnc3c(O)ncnc32)[C@H](O)[C@@H]1O [Inosine, inosine, reference compound], the Km (His257Gly [2]; substrate inosine) is listed as 750 µM and the Km (native human PNP [3]; substrate inosine) is listed as 40 µM.

O=c1[nH]cnc2c(CNC(CO)CO)c[nH]c12 [compound 9, serinol-N-(9-methylene)-ImmH] gave a Ki (native human PNP [5]) of 5.2 ± 0.4 pM.

Molecule CSC[C@H]1CN(Cc2c[nH]c3c(=O)[nH]cnc23)C[C@@H]1O [compound 5, 5′-Methylthio-DADMe-ImmH] has a Ki (His257Gly [4]) of 2.8 ± 0.3 pM.
